Patent publication US20100298141A1, “SUBSTITUTED PYRIDINE N-OXIDE HERBICIDES” (E. I. DU PONT DE NEMOURS AND COMPANY, priority 2007, published 2010)

How the values were obtained:
[1] = system: redroot pigweed; assay: Test A pre-/postemergence greenhouse test; format: in vivo, Amaranthus retroflexus; conditions: for Plant response rating, Pigweed: 0 to 100 scale where 0 is no effect and 100 is complete control; for Pigweed plant response rating: 0 to 100 scale
In short: (§1)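 Visual injury ratings, made relative to untreated controls roughly ten days after treatment, cover both preemergence and postemergence application. Compounds in a surfactant-containing non-phytotoxic solvent were sprayed onto the soil surface after sowing and, simultaneously, onto young plants at the one- to two-leaf stage.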

[2] = system: velvetleaf; assay: Test A pre-/postemergence greenhouse test; format: in vivo, Abutilon theophrasti; conditions: for Plant response rating, Velvetleaf: 0 to 100 scale where 0 is no effect and 100 is complete control; for Velvetleaf plant response rating: 0 to 100 scale
In short: as §1

[3] = system: wheat; assay: Test A pre-/postemergence greenhouse test; format: in vivo, Triticum aestivum; conditions: for Plant response rating, Wheat: 0 to 100 scale where 0 is no effect and 100 is complete control; for Wheat plant response rating: 0 to 100 scale
In short: as §1

[4] = system: downy brome; assay: Test C pre-/postemergence test; format: in vivo, Bromus tectorum
In short: (§2)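 Compounds in a non-phytotoxic solvent with surfactant applied preemergence to seeded pots and, at the same time, postemergence to plants 2–18 cm tall (1- to 4-leaf stage). Paddy tests: pots flooded to 3 cm, compound applied into the water, depth held throughout.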

[5] = system: wheat; assay: Test C pre-/postemergence test; format: in vivo, Triticum aestivum
In short: as §2

[6] = system: wild oat; assay: Test C pre-/postemergence test; format: in vivo, Avena fatua
In short: as §2

[7] = system: catchweed bedstraw; assay: Test C pre-/postemergence test; format: in vivo, Galium aparine
In short: as §2

[8] = system: corn; assay: Test C pre-/postemergence test; format: in vivo, Zea mays
In short: as §2

[9] = system: woolly cupgrass; assay: Test C pre-/postemergence test; format: in vivo, Eriochloa villosa
In short: as §2

[10] = system: giant foxtail; assay: Test C pre-/postemergence test; format: in vivo, Setaria faberii
In short: as §2

[11] = system: johnsongrass; assay: Test C pre-/postemergence test; format: in vivo, Sorghum halepense
In short: as §2

[12] = system: morningglory; assay: Test C pre-/postemergence test; format: in vivo, Ipomoea coccinea
In short: as §2

[13] = system: eastern black nightshade; assay: Test C pre-/postemergence test; format: in vivo, Solanum ptycanthum
In short: as §2

[14] = system: yellow nutsedge; assay: Test C pre-/postemergence test; format: in vivo, Cyperus esculentus
In short: as §2

[15] = system: velvetleaf; assay: Test C pre-/postemergence test; format: in vivo, Abutilon theophrasti
In short: as §2

[16] = system: rice; assay: Test C flooded paddy test; format: in vivo, Oryza sativa; conditions: Flood
In short: (§3)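 Ratings were visual and made relative to untreated controls after 13 to 15 greenhouse days.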

[17] = system: duck salad; assay: Test C flooded paddy test; format: in vivo, Heteranthera limosa; conditions: Flood
In short: as §3

[18] = Postemergence, 500 g ai/ha, 0 is no effect, 100 is complete control
[19] = Preemergence, 125 g ai/ha, 0 no effect, 100 complete control
[20] = 62 g ai/ha, Preemergence, scale 0 to 100
[21] = 125 g ai/ha, preemergence, scale 0 (no effect) to 100 (complete control)
[22] = Preemergence, 31 g ai/ha, scale 0 to 100 (0 no effect, 100 complete control)
[23] = preemergence, 250 g ai/ha, scale 0 (no effect) to 100 (complete control)
[24] = 62 g ai/ha, scale 0 to 100 (0 no effect, 100 complete control)
[25] = 250 g ai/ha, scale 0 to 100, 0 no effect, 100 complete control, 13 to 15 days

## CC(Oc1c(C[S+]([O-])c2cccc[n+]2[O-])c(C(F)(F)F)nn1C)C(F)(F)F (stereo not shown) [Compound 77]
[1]; Postemergence, 125 g ai/ha
  Plant response rating, Pigweed: 70
[1]; [18]
  Pigweed plant response rating: 80
[1]; [19]
  Pigweed plant response rating: 70
[1]; Preemergence, 500 g ai/ha
  Plant response rating, Pigweed: 100
[2]; Postemergence, 125 g ai/ha
  Plant response rating, Velvetleaf: 50
[2]; [18]
  Velvetleaf plant response rating: 90
[2]; [19]
  Velvetleaf plant response rating: 50
[2]; Preemergence, 500 g ai/ha
  Plant response rating, Velvetleaf: 100
[3]; Postemergence, 125 g ai/ha
  Plant response rating, Wheat: 50
[3]; [18]
  Wheat plant response rating: 70
[3]; [19]
  Wheat plant response rating: 50
[3]; Preemergence, 500 g ai/ha
  Plant response rating, Wheat: 100
[4]; [20]
  Bromegrass, Downy plant response rating: 45
[4]; [21]
  Bromegrass, Downy plant response rating: 70
[4]; [22]
  Plant response rating, Bromegrass, Downy: 0
[4]; [23]
  Bromegrass, Downy plant response rating: 100
[5]; [20]
  Wheat plant response rating: 40
[5]; [21]
  Wheat plant response rating: 80
[5]; [22]
  Plant response rating, Wheat: 20
[5]; [23]
  Wheat plant response rating: 95
[6]; [20]
  Oat, Wild plant response rating: 70
[6]; [21]
  Oat, Wild plant response rating: 90
[6]; [22]
  Plant response rating, Oat, Wild: 35
[6]; [23]
  Oat, Wild plant response rating: 95
[7]; [20]
  Galium plant response rating: 100
[7]; [21]
  Galium plant response rating: 100
[7]; [22]
  Plant response rating, Galium: 100
[7]; [23]
  Galium plant response rating: 100
[8]; [20]
  Corn plant response rating: 95
[8]; [21]
  Corn plant response rating: 100
[8]; [22]
  Plant response rating, Corn: 40
[8]; [23]
  Corn plant response rating: 100
[9]; [20]
  Cupgrass, Woolly plant response rating: 98
[9]; [21]
  Cupgrass, Woolly plant response rating: 100
[9]; [22]
  Plant response rating, Cupgrass, Woolly: 80
[9]; [23]
  Cupgrass, Woolly plant response rating: 100
[10]; [20]
  Foxtail, Giant plant response rating: 100
[10]; [21]
  Foxtail, Giant plant response rating: 100
[10]; [22]
  Plant response rating, Foxtail, Giant: 80
[10]; [23]
  Foxtail, Giant plant response rating: 100
[11]; [20]
  Johnsongrass plant response rating: 100
[11]; [21]
  Johnsongrass plant response rating: 100
[11]; [22]
  Plant response rating, Johnsongrass: 60
[11]; [23]
  Johnsongrass plant response rating: 100
[12]; [20]
  Morningglory plant response rating: 65
[12]; [21]
  Morningglory plant response rating: 100
[12]; [22]
  Plant response rating, Morningglory: 60
[12]; [23]
  Morningglory plant response rating: 100
[13]; [20]
  Nightshade plant response rating: 100
[13]; [21]
  Nightshade plant response rating: 100
[13]; [22]
  Plant response rating, Nightshade: 100
[13]; [23]
  Nightshade plant response rating: 100
[14]; [20]
  Nutsedge, Yellow plant response rating: 100
[14]; [21]
  Nutsedge, Yellow plant response rating: 100
[14]; [22]
  Plant response rating, Nutsedge, Yellow: 50
[14]; [23]
  Nutsedge, Yellow plant response rating: 100
[15]; [20]
  Velvetleaf plant response rating: 100
[15]; [21]
  Velvetleaf plant response rating: 100
[15]; [22]
  Plant response rating, Velvetleaf: 60
[15]; [23]
  Velvetleaf plant response rating: 100
[16]; [24]
  Plant response rating, Rice: 30
[16]; [25]
  Plant response rating, Rice: 70
[17]; [24]
  Plant response rating, Ducksalad: 75
[17]; [25]
  Plant response rating, Ducksalad: 100
